From patent US10022394B2, “Antiinfective composition” (priority 2011, dated 2018) come the findings set out here.

For the experiment, the system named is viruses. As to the kind of experiment: in vitro virucidal action. The following applies: as the degree of hydroxymethylation increases.

With hydroxymethyl-hyaluronic acid, the virucidal action entry is reported as “increased”.
